Earlier results in US7608286B2, “Phyto-nutraceutical synergistic composition for hyperlipedemic condition” (priority 2006, dated 2009).

Assays:
[1] = test system: bacterial resistance mechanism (multidrug pump); conditions: in the presence of 5′-MHC
rats = conditions: rat, in vivo
[2] = target: T1, lanosterol 14alpha -demethylase (Homo sapiens, UniProt Q16850)
T1 sequence (Q16850 1-509): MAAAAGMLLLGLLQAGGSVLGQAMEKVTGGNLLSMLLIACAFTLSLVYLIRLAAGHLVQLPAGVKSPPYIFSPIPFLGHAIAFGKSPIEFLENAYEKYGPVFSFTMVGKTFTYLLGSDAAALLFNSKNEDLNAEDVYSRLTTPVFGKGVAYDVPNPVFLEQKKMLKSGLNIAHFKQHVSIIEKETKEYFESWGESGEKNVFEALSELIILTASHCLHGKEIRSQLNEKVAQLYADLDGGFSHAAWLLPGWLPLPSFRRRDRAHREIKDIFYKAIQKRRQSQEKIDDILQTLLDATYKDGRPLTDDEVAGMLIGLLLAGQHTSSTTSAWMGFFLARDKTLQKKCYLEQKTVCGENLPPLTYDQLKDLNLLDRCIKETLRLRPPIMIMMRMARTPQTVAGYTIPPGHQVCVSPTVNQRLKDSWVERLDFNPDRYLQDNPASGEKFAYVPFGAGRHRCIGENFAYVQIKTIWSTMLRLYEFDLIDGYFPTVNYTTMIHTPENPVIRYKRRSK

[3] = test system: normolipidemic and hyperlipidemic patients with low HDL-C levels; conditions: low dose (1.5 g/d)
[4] = test system: participants having low blood concentrations of HDL-C; conditions: time-release
[5] = test system: apolipoprotein E-null mice; conditions: evolving versus established
[6] = test system: cultured human liver (HepG2) cells

For COc1cc([C@H]2Oc3cc(-c4cc(=O)c5c(O)cc(O)cc5o4)cc(OC)c3O[C@@H]2CO)ccc1O (racemic) [5′-MHC, 5′-methoxyhydnocarpin], the “accumulation of berberine in the cells” value [1] is listed as “strong increase”.

In the case of Nc1ncnc2c1ncn2C[C@@H](O)[C@@H](O)C(=O)O [Eritadenine], the “S-adenosylmethionine (SAM):S-adenosylhomocysteine (SAH) ratio in the liver” value (rats) is listed as “significantly decreased”, the “phosphatidylcholine (PC):phosphatidylethanolamine ratio in liver microsomes” value (rats) is listed as “significantly decreased” and the plasma cholesterol concentration (rats) is listed as “significantly decreased”.

In the case of C/C(C=O)=C\CC[C@@H](C)[C@H]1CC[C@@]2(C)C3=CC[C@H]4C(C)(C)C(=O)CC[C@]4(C)C3=CC[C@]12C [ganoderal A], the “cholesterol biosynthesis / lanosterol 14alpha -demethylase” value [2] is listed as “inhibit cholesterol biosynthesis”.

In the case of C/C(=C\CC[C@@H](C)[C@H]1CC[C@@]2(C)C3=CC[C@H]4C(C)(C)C(=O)CC[C@]4(C)C3=CC[C@]12C)CO [ganoderol A], the “cholesterol biosynthesis / lanosterol 14alpha -demethylase” value [2] is given as “inhibit cholesterol biosynthesis”.

For C/C(=C\CC[C@@H](C)[C@H]1CC[C@@]2(C)C3=CC[C@H]4C(C)(C)[C@@H](O)CC[C@]4(C)C3=CC[C@]12C)CO [ganoderol B], the “cholesterol biosynthesis / lanosterol 14alpha -demethylase” value [2] is listed as “inhibit cholesterol biosynthesis”.

For O=C(O)c1cccnc1 [nicotinic acid, Nicotinic acid], the “average increase in HDL-C levels” value [3] is listed as 20%, the triglyceride levels [3] is listed as “significantly lowers” and the “change of total cholesterol concentrations” value [4] is listed as -20 mg/dL. The “decrease of low-density lipoprotein cholesterol levels” value [4] was 13%, the “decrease of the ratio of total cholesterol to HDL-C” value [4] was 25% and the “decrease of total cholesterol concentrations” value [4] was 9%. For the same compound, the “decrease of triglyceride levels” value [4] was 20%, the “mean change of HDL-C levels” value [4] was “+6 mg/dl” and the “mean increase of HDL-C levels” value [4] was 18%.

For (−)-epigallocatechin gallate [EGCG], the atherosclerotic lesions [5] is listed as “differentially reduces evolving atherosclerotic lesions without influencing established atherosclerosis”, the “cellular cholesterol concentration lowered” value [6] is listed as 28% and the cellular cholesterol synthesis [6] is listed as “significantly lowered”. For the same compound, the “increase of LDL receptor binding activity” value [6] was 3 fold.

In the case of ganoderic acid, the “cholesterol biosynthesis / lanosterol 14alpha -demethylase” value [2] is listed as “inhibit cholesterol biosynthesis”.
